Experimental data taken from patent publication US8637513B2, “Heterocycle phenyl amide T-type calcium channel antagonists” (Merck Sharp & Dohme Corp., priority 2007, dated 2014).

Biological target: T1, T-type channel alpha1I (CaV 3.3) (Homo sapiens, UniProt Q9P0X4)
T1 construct: expressed in transfected cells; host or cells: HEK 293 cells, tetracycline-inducible expression
Experiment: FLIPR Ca2+ Flux Assay
Assay type: cell-based
Conditions: alpha1I subtype; read-out: FLIPR alpha1I IP

T1 sequence (Q9P0X4 whole entry): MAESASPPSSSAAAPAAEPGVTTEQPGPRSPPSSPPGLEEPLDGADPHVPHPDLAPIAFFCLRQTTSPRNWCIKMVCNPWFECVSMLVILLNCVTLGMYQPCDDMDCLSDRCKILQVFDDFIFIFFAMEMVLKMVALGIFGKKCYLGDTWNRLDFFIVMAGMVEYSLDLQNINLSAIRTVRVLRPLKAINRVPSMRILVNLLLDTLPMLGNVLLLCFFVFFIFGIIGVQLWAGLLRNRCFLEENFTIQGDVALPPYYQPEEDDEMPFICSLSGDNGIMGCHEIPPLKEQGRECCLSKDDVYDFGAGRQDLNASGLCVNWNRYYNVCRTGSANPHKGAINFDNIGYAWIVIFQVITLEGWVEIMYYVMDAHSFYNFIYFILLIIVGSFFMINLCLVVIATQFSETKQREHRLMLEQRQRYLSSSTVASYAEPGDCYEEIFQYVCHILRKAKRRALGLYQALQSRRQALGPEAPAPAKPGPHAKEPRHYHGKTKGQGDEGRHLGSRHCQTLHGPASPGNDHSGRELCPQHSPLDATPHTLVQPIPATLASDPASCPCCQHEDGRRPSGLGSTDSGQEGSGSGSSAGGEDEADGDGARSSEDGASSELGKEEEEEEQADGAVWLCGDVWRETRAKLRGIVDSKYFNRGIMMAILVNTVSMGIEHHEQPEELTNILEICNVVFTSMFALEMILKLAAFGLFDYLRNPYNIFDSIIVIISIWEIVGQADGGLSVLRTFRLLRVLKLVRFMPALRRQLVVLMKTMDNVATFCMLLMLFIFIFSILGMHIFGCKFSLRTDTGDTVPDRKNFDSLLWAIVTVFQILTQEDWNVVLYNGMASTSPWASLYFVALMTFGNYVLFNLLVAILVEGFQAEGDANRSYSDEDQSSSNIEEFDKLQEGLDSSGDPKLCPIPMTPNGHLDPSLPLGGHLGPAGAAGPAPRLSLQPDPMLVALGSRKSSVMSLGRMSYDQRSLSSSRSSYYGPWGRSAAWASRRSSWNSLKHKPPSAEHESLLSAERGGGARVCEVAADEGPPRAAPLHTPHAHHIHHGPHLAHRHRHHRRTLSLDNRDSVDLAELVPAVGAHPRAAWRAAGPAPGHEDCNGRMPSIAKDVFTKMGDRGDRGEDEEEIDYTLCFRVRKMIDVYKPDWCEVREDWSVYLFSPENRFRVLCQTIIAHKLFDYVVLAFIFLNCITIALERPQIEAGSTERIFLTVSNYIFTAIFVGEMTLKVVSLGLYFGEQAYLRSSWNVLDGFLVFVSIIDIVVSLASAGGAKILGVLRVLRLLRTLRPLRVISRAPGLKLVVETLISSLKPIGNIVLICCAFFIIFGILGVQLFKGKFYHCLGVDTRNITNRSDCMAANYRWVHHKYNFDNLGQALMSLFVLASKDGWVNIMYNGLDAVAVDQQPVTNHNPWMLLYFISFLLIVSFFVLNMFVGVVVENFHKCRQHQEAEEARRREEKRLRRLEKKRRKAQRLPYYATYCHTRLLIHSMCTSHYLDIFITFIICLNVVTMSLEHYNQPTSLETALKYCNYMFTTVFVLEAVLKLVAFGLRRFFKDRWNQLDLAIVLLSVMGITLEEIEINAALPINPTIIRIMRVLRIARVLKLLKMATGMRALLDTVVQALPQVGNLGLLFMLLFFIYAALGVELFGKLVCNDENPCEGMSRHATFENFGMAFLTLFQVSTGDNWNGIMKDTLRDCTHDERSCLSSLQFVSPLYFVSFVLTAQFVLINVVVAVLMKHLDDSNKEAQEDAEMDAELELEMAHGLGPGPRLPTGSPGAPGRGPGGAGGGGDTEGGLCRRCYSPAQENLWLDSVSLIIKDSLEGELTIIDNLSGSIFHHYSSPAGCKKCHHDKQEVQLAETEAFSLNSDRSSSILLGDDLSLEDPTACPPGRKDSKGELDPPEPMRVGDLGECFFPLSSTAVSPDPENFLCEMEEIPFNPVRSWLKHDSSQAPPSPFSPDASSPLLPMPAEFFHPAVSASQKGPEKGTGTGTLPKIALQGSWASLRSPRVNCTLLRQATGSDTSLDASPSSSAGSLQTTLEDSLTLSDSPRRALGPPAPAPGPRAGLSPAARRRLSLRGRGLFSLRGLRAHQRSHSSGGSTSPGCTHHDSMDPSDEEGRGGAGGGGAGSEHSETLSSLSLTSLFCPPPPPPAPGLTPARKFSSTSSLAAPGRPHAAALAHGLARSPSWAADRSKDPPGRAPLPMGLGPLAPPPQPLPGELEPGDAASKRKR

Structure (SMILES): C[C@@H](NC(=O)Cc1ccc(OC2CCOC2)cc1)c1ccc(OCC(F)(F)F)cn1 (stereo partly shown) [Example 8]
- IC50: 91 nM

Structure (SMILES): C[C@@H](NC(=O)Cc1ccc(-c2cnn3ncccc23)cc1)c1ccc(OCC(F)(F)F)cn1 [Example 4, 2-(4-Pyrazolo[1,5-b]pyridazin-3-ylphenyl)-N-{(1R)-1-[5-(2,2,2-trifluoroethoxy)pyridin-2-yl]ethyl}acetamide]
- IC50: 5 nM

Structure (SMILES): C[C@@H](NC(=O)Cc1ccc(Oc2nccs2)cc1)c1ccc(OCC(F)(F)F)cn1 [Example 9]
- IC50: 46 nM

Structure (SMILES): C[C@@H](NC(=O)Cc1ccc(-c2nccnc2C2CC2)cc1)c1ccc(OCC(F)(F)F)cn1 [Example 6, 2-[4-(3-Cyclopropylpyrazin-2-yl)phenyl]-N-{(1R)-1-[5-(2,2,2-trifluoroethoxy)pyridin-2-yl]ethyl}acetamide]
- IC50: 47 nM

Structure (SMILES): C[C@@H](NC(=O)Cc1ccc(-n2nc(C3CC3)c3ccccc32)cc1)c1ccc(OCC(F)(F)F)cn1 [Example 10]
- IC50: 73 nM

Structure (SMILES): Cc1nccnc1-c1ccc(CC(=O)N[C@H](C)c2ccc(OCC(F)(F)F)cn2)cc1 [Example 2, 2-[4-(3-methylpyrazin-2-yl)phenyl]-N-{(1R)-1-[5-(2,2,2-trifluoroethoxy)pyridin-2-yl]ethyl}acetamide]
- IC50: 24 nM

Structure (SMILES): C[C@@H](NC(=O)Cc1ccc(-c2cccc3cncnc23)cc1)c1ccc(OCC(F)(F)F)cn1 [Example 1, 2-(4-Quinazolin-8-ylphenyl)-N-{(1R)-1-[5-(2,2,2-trifluoroethoxy)pyridin-2-yl]ethyl}acetamide]
- IC50: 19 nM

Structure (SMILES): C[C@@H](NC(=O)Cc1ccc(-c2cnccn2)cc1)c1ccc(OCC(F)(F)F)cn1 [Example 5, 2-(4-Pyrazin-2-ylphenyl)-N-{(1R)-1-[5-(2,2,2-trifluoroethoxy)pyridin-2-yl]ethyl}acetamide]
- IC50: 30 nM

Structure (SMILES): C[C@@H](NC(=O)Cc1ccc(-c2cc3ccccc3n2C)cc1)c1ccc(OCC(F)(F)F)cn1 [Example 3, 2-[4-(1-Methyl-1H-indol-2-yl)phenyl]-N-{(1R)-1-[5-(2,2,2-trifluoroethoxy)pyridin-2-yl]ethyl}acetamide]
- IC50: 36 nM

Structure (SMILES): CC1=NOC(C)(c2ccc(CC(=O)N[C@H](C)c3ccc(OCC(F)(F)F)cn3)cc2)C1 (stereo partly drawn) [Example 7, 2-[4-(3,5-Dimethyl-4,5-dihydro-isoxazol-5-yl)phenyl]-N-{(1R)-1-[5-(2,2,2-trifluoroethoxy)pyridin-2-yl]ethyl}acetamide]
- IC50: 41 nM
